Assay: Human HepG2 cell viability assay in 384 well format
Assay type: toxicity, cell-based
Set-up: dose 125 nL, time 70.5 hour; cytotoxicity at 70.5 h: concentration not given beside the values
Details: HepG2 cells, read-out: Inhibition

Row | SMILES | cytotoxicity at 70.5 h [%]
1 | CN(C)c1cc(CNCc2ccc(N3CCOCC3)cc2)ccn1 | -6.16
2 | CN(C)c1ncccc1CNCc1ccc(N2CCOCC2)cc1 | 18.9
3 | c1cnn(C2CN(c3ncnc4[nH]ccc34)C2)c1 | -0.76
4 | Cc1cc(C)n(C2CN(c3ncnc4[nH]ccc34)C2)n1 | -3.24
5 | Cc1cnn(C2CN(c3ncnc4[nH]ccc34)C2)c1 | -3.84
6 | CC(C)CCN(C(=O)CCn1cc(S(N)(=O)=O)cn1)C1CC1 | -1.68
7 | Cc1ccccc1N(CC(=O)NCCc1nnc2n1CCC2)S(C)(=O)=O | -4.09
8 | Cn1cnc2c1CCN(Cc1ccc(Cl)c3cccnc13)C2 | 15.6
9 | Cn1nnnc1SC1CCN(c2ccccc2Cl)C1=O (stereo not given) | -2.66
10 | Cn1cc(C2CCCN2C(=O)Cn2c(=O)oc3ccccc32)cn1 (stereo not given) | -4.25
11 | O=C1C(Sc2nnnn2C2CC2)CCN1c1ccccc1F (stereo not given) | -3.39
12 | Cn1cnc2c1CCN(Cc1c(Cl)ccc3cccnc13)C2 | 0.125
13 | CS(=O)(=O)N(Cc1ccon1)c1cccc(Br)c1 | -1.5
14 | Cc1ccc(CN(C)c2cc(N3CCCC3CO)ncn2)s1 (stereo not given) | -4.83
15 | Cn1nnnc1SC1CCCN(c2ccccc2Cl)C1=O (stereo not given) | -1.81
16 | CN(C)c1ccc(C(=O)NCc2ccc(N3CCOCC3)cc2)cn1 | 14.5
17 | CCc1nnc(C(C)N2CCc3cncnc3C2)o1 (stereo not given) | -3.77
18 | Cc1cc(CNC2(c3ccc(Cl)cc3)CC2)no1 | -2.02
19 | CC(=O)N1CCN(CC=C(C)C)CC1 | -6.01
20 | CC(c1nnc(-c2ccccc2)o1)N1CCc2cncnc2C1 (stereo not given) | -4.24
21 | Cc1ccsc1CN(C)c1cc(N2CCCC2CO)ncn1 (stereo not given) | -3.13
22 | COc1cccc2c1N(C(=O)c1ccc(C)nc1)CCC2 | 4.1
23 | O=C(c1ccc2c(c1)CCO2)N1CCN(c2ncccn2)CC1 | 2.69
24 | CCCn1ccnc1SCCNS(=O)(=O)c1ccccc1 | -1.16

Row | SMILES | cytotoxicity at 70.5 h [%]
25 | CCN(Cc1noc(C(C)C)n1)Cc1ccc(C#N)cc1F | 27.6
26 | N#Cc1c(Cl)nsc1N1CCN(CC2CC2)CC1 | 2.5
27 | COc1ccc(C)c2c1N(C(=O)c1cnc3onc(C)c3c1)CCC2 | 2.65
28 | COc1ccc(C)c2c1N(C(=O)c1ccc3nnc(C)n3c1)CCC2 | -2.94
29 | CCCN(CC(F)(F)F)C(=O)c1cc(F)cc2[nH]cnc12 | 0.747
30 | CC(C)c1nc(/C=C/c2ccc(O)c(Cl)c2)ncc1C(=O)O | -4.86
31 | CC(C)(C#N)c1ccc(NS(=O)(=O)CC2CCCCO2)cc1 (stereo not given) | -0.0974
32 | N#Cc1cccc(S(=O)(=O)N2CC(CC(=O)O)c3ccccc32)c1 (stereo not given) | -4.94
33 | CC(C)c1nc(/C=C/c2cnn(-c3ccccc3)c2)ncc1C(=O)O | -1.23
34 | CNS(=O)(=O)CC(=O)NC(C)Cc1ccccc1Br (stereo not given) | 3.97
35 | CC(C)c1nnc(NCCS(C)(=O)=O)s1 | -0.429
36 | CNS(=O)(=O)CC(=O)NC(C)Cc1ccc(Br)cc1 (stereo not given) | 2.68
37 | CNS(=O)(=O)CC(=O)NC(C)Cc1ccc(-c2ccccc2)cc1 (stereo not given) | 1.33
38 | CCNC(=O)NC1CN(Cc2ccncc2Cl)C[C@@H]1OC (stereo not given in full) | 28.4
39 | Cc1ccc(-c2ncc(CNc3cnccc3CO)s2)cc1 | 3.65
40 | OCc1ccncc1NCc1cnc(-c2ccccn2)s1 | 0.118
41 | CN(C)C(=O)Cc1ccccc1NCc1cccc2cccnc12 | 57.4
42 | CCN(Cc1noc(C2CC2)n1)Cc1ccc(C#N)cc1F | 1.6
43 | Cc1cnn(CCNCc2c(C)nn(Cc3ccccc3)c2C)c1 | 23.6
44 | COCCN(CCOC)C(=O)c1cccc(Cn2nc(C)cc2C)c1 | 0.115
45 | CCN(CCC(=O)OC)C(=O)c1cc(F)cc2[nH]cnc12 | 0.0493
46 | N#Cc1ccc(S(=O)(=O)N2CC(CC(=O)O)c3ccccc32)cc1 (stereo not given) | -3.42
47 | CNS(=O)(=O)CC(=O)NC(C)Cc1cccc(Cl)c1 (stereo not given) | -2.05
48 | CCN(Cc1noc(C(C)(C)C)n1)Cc1ccc(C#N)cc1F | -6.26

Row | SMILES | cytotoxicity at 70.5 h [%]
49 | Cc1c(C(=O)NS(=O)(=O)c2ccsc2)cnn1CC(C)C | 4.87
50 | CC(=O)NC(CC(=O)Nc1nc(C)c(C)s1)c1ccccc1 (stereo not given) | 0.551
51 | CC(Cn1cccn1)NC(=O)N(C)Cc1ccsc1 (stereo not given) | -16.6
52 | CC(Cn1ccnc1)NC(=O)N(C)Cc1ccsc1 (stereo not given) | -27.1
53 | O=C1CCCN1c1cccc(CNCc2nc(-c3ccco3)no2)c1 | -17.4
54 | CNC(=O)NC(=O)CCSCc1cc(Cl)cc2cccnc12 | -16.5
55 | Cc1cc(C)cc(OCC(=O)N2CCCN(CC(N)=O)CC2)c1 | -16.4
56 | NC(=O)NC(=O)CCSCc1cc(F)cc2cccnc12 | -29.1
57 | CC(C)NC(=O)N(C)C1CCN(c2ccccc2Cl)C1=O (stereo not given) | -21.1
58 | COCc1noc(-c2cc(Cl)c3c(c2)OCO3)n1 | -19.3
59 | Cc1nccn1CCCNc1nccnc1C#N | 44.8
60 | COc1ccccc1S(=O)(=O)Nc1cnc(O)cc1C | -10.5
61 | CCN(CC)C(=O)COc1ccnc2cc(OC)ccc12 | -19.4
62 | CC(C)c1nsc(N2CCS(=O)(=O)CC2)n1 | -22.3
63 | Clc1cnc(NCc2ccccc2N2CCOCC2)nc1 | -14.4
64 | CN(Cc1nccn1C)C(CO)c1cccc(Br)c1 (stereo not given) | -28.6
65 | CC(Cn1cccn1)NCc1cnc(N2CCCC2)nc1 (stereo not given) | -3.66
66 | CCC(C)(COc1ncccc1Cl)NCC(=O)Nc1ccc(Br)cn1 (stereo not given) | 38.6
67 | O=S(=O)(CCNCCn1cccn1)c1ccccc1 | -18.7
68 | CCC(C)(COc1ncccc1Cl)NCC(=O)NCC(C)C (stereo not given) | -30.2
69 | COc1cc(CNC(=O)NCCCF)cc(Br)c1OC | -2.35
70 | CCc1nc(NS(=O)(=O)c2ccc(C)cc2Cl)no1 | -4.3
71 | CCc1nc(NS(=O)(=O)c2cc(C)ccc2F)no1 | -8.12
72 | COc1cccc(S(=O)(=O)CCN2CCCN(C(C)=O)CC2)c1 | 0.259

Row | SMILES | cytotoxicity at 70.5 h [%]
73 | CC(=O)c1ccccc1C(=O)NCC1(CO)CC1 | 4.58
74 | Cc1nc(C)n(CC2CCCCN2CCCS(=O)(=O)N(C)C)n1 (stereo not given) | 3.2
75 | Cn1cc(S(=O)(=O)N2CCCC2CC(=O)c2cccs2)cn1 (stereo not given) | -9.81
76 | CC(C)CCC(C)NC(=O)c1ccc(OCC(N)=O)cc1 (stereo not given) | -3.72
77 | CCC(CNC(=O)c1ccc(=O)[nH]n1)N1CCc2ccccc2C1 (stereo not given) | -10.3
78 | Cc1nc(CNC(=O)NCC(O)c2cccc(Cl)c2)cs1 (stereo not given) | 5.52
79 | CCN(Cc1ccco1)C(=O)NCc1nnc2n1CCC2 | -13.2
80 | c1ccc(-c2noc(CN3CCC(c4ccn[nH]4)CC3)n2)cc1 | -14.9
81 | CC(=O)N1CCCN(C(=O)c2oc(Br)cc2C)CC1 | -3.38
82 | Cc1ccc(C(O)CNC(=O)NCc2nc(C)cs2)cc1 (stereo not given) | -2.07
83 | CC(=O)c1cccc(OCCCC(=O)N(C)CCc2ccncc2)c1 | -10.1
84 | CC(CNC(=O)c1cccnc1Oc1cccnc1)N(C)C (stereo not given) | -8.64
85 | O=S(=O)(CCNCc1ccc2c(c1)CCO2)N1CCOCC1 | 12.8
86 | O=C(NCCOc1ccc(F)c(F)c1)NCc1cccc(CO)c1 | -9.23
87 | CN(Cc1ccco1)Cc1ccccc1CNC(=O)c1ccncc1 | -8
88 | CN(Cc1ccco1)Cc1ccccc1CNC(=O)c1ccc[nH]1 | -9.87
89 | COc1ccc(OCC(=O)NS(=O)(=O)c2cc(F)ccc2F)cc1 | 20.8
90 | Cc1c(I)cccc1C(=O)NCC1(CO)CC1 | -7.8
91 | COc1ccc(C(CO)NC(=O)Nc2cccnc2)cc1 (stereo not given) | 12.6
92 | CC(CNC(=O)c1ccccc1Oc1cccnc1)N(C)C (stereo not given) | -6.12
93 | Cc1nc(C)n(CC2CCCCN2CCS(C)(=O)=O)n1 (stereo not given) | 12.7
94 | CCc1noc(CNc2cc(F)ccc2OCC2CCCO2)n1 (stereo not given) | -6.07
95 | CCOC(C)c1nc(CN2CCN(c3nccc(C)n3)CC2)cs1 (stereo not given) | -8.29
96 | Fc1cc(CNCc2ccc3c(c2)CCO3)ccc1N1CCOCC1 | -6.5

Row | SMILES | cytotoxicity at 70.5 h [%]
97 | Cc1ccc(-c2nc(CN3CCOC(Cn4cccn4)C3)cs2)o1 (stereo not given) | -13.3
98 | COc1ccc(F)cc1C(C)NC(=O)Nc1nnc(C)s1 (stereo not given) | -12.6
99 | CCn1cc(C(=O)NC2CCN(S(C)(=O)=O)CC2)c2ccccc21 | -9.93
100 | CC(=O)NCCNC(=O)c1cnc(-c2ccccc2)nc1 | -17.1
101 | Cc1cc(CNC(=O)C2CCCCN2C(=O)OC(C)(C)C)no1 (stereo not given) | -10.1
102 | N#Cc1ccnc(N2CCN(Cc3cccc(F)c3)CC2)c1 | -6.08
103 | CC(C)c1cc(C(=O)N2CCN(Cc3ccsc3)CC2)n[nH]1 | -9.01
104 | Cc1ccc(S(=O)(=O)N2CSCC2C(=O)N(C)C2CC2)cc1Cl (stereo not given) | -12.2
105 | Cc1noc(C)c1CN1CCN(C(=O)Cn2cncn2)CC1 | -5.67
106 | CCOC(=O)NC(CNC(=O)c1ncccn1)CC(C)C (stereo not given) | -7.23
107 | CCOc1cccc(NS(=O)(=O)c2cc(C)c(C(=O)O)s2)c1 | 8.89
108 | CCN1CCN(c2ccc(F)cc2C(C)NCc2ccncc2)CC1 (stereo not given) | -1.51
109 | Cn1cc(N2CCC(NC(=O)c3c(F)cccc3F)C2=O)cn1 (stereo not given) | -2.48
110 | CCC(CC)c1cc(CNC(=O)N2CCOCC2CC)on1 (stereo not given) | -10.6
111 | CN(Cc1ccncc1)C(=O)Nc1cnn(CC2CCCO2)c1 (stereo not given) | -3.42
112 | CN(C)c1ccc(CCCNC(=O)Nc2ccc(C#N)cc2)cc1 | 1.4
113 | CC(C)(C)c1nnc(CN2CCN(S(C)(=O)=O)CC2)o1 | -2.04
114 | Cc1ccc(CNC(=O)N2CCCCC2CCNS(C)(=O)=O)cc1 (stereo not given) | -8.15
115 | NC(=O)C1CCN(C(=O)NCc2ccccc2Cn2cncn2)CC1 | -3.83
116 | O=C(NCCNC(=O)N1CCC(c2ccccc2)C1)C1CC1 (stereo not given) | -6.87
117 | CC(C)CS(=O)(=O)CC(=O)N(C)Cc1ccc(OC(F)F)cc1 | -3.66
118 | O=C(NCCCNCC1CNc2ccnn2C1)c1ccccc1 (stereo not given) | -12
119 | O=C(c1cccnc1-n1cccn1)N1CCN(CC2CC2)CC1 | -11
120 | CN(C)c1ccc(CNCc2cnc(N3CCOCC3)nc2)cn1 | 2.93

— ChEMBL document CHEMBL3507680, “University of Dundee, Gates Library screen for HepG2 cell viability”
